Experimental data as given in patent US20230089867A1, “CYCLIC PENTAMER COMPOUNDS AS PROPROTEIN CONVERTASE SUBTILISIN/KEXIN TYPE 9 (PCSK9) INHIBITORS FOR THE TREATMENT OF METABOLIC DISORDER” (Novartis AG, priority 2018, published 2023).

Target: human PCSK9 (Homo sapiens, UniProt Q8NBP7)
Experiment: PCSK9 ligand binding TR-FRET assay (interference with binding of human PCSK9 to human LDLR)
Conditions: for Max % inhibition: PCSK9 FRET assay, efficacy (Amax), 100% = 1 uM unlabeled human PCSK9, 0% = DMSO; for IC50: TR-FRET, human PCSK9 Alexa Fluor 647 / human LDLR extracellular domain-Europium Kryptate, read-out: PCSK9 FRET Assay IC50
Outline: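 Threefold compound dilutions were pre-incubated 30 min with PCSK9, after which 4 nM Europium Kryptate-tagged human LDLR ectodomain was added for a further 2 h.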

Chain of human PCSK9 (Q8NBP7 153-692): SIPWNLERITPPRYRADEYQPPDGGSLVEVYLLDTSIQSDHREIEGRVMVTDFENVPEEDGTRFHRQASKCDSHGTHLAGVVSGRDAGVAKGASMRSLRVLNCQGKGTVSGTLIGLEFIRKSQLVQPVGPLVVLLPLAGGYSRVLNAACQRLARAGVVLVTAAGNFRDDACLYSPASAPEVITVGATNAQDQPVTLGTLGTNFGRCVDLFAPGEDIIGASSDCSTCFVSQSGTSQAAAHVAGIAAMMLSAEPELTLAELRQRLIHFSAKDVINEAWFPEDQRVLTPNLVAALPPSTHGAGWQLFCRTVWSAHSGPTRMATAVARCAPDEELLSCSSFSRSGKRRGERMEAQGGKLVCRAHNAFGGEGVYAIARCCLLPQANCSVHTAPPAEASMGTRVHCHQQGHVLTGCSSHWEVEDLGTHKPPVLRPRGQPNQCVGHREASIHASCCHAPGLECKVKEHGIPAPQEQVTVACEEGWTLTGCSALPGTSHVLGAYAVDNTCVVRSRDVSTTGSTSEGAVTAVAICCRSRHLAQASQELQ
Chain of human PCSK9 (Q8NBP7 31-152 partner limits assumed): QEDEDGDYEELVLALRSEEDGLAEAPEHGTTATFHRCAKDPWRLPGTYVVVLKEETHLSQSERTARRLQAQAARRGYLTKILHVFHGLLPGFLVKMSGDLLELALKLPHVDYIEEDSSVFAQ

Compound: COC[C@@H]1NC(=O)[C@H](C)N(Cc2ccc(C(F)F)cc2Oc2ccc(-c3cnc(CN(C)C)n3C)cc2)C(=O)C[C@@H](Cc2ccccc2)C(=O)N(C)[C@@H](C)CNC(=O)C[C@H](Cc2ccc(Cl)cc2)N(C)C1=O [Compound 42, (2S,5S,8S,13S,16R)-16-benzyl-8-(4-chlorobenzyl)-1-(4-(difluoromethyl)-2-(4-(2-((dimethylamino)methyl)-1-methyl-1H-imidazol-5-yl)phenoxy)benzyl)-5-(methoxymethyl)-2,7,13,14-tetramethyl-1,4,7,11,14-pentaazacyclooctadecane-3,6,10,15,18-pentaone]
- Max % inhibition: 102.18%
- IC50: 24.5 nM

Compound: COC[C@@H]1NC(=O)[C@H](C)N(Cc2ccc(Cl)cc2Oc2ccc(-c3cnc(CN4CCCC4)n3C)cc2)C(=O)C[C@@H](Cc2ccccc2)C(=O)N(C)[C@@H](CCCCN(C)C)CNC(=O)C[C@H](Cc2ccc(Cl)cc2)N(C)C1=O.Cl [Compound 43, (2S,5S,8S,13S,16R)-16-benzyl-1-(4-chloro-2-(4-(1-methyl-2-(pyrrolidin-1-ylmethyl)-1H-imidazol-5-yl)phenoxy)benzyl)-8-(4-chlorobenzyl)-13-(4-(dimethylamino)butyl)-5-(methoxymethyl)-2,7,14-trimethyl-1,4,7,11,14-pentaazacyclooctadecane-3,6,10,15,18-pentaone hydrochloride]
- Max % inhibition: 94.38%
- IC50: 1.8 nM

Compound: COC[C@@H]1NC(=O)[C@H](C)N(Cc2ccc(Cl)cc2Oc2ccc(-c3cnc(CN(C)C)n3C)cc2)C(=O)C[C@@H](Cc2ccc(F)cn2)C(=O)N(C)[C@@H](C)CNC(=O)C[C@H](Cc2ccc(Cl)cc2)N(C)C1=O [Compound 45, (2S,5S,8S,13S,16R)-1-(4-chloro-2-(4-(2-((dimethylamino)methyl)-1-methyl-1H-imidazol-5-yl)phenoxy)benzyl)-8-(4-chlorobenzyl)-16-((5-fluoropyridin-2-yl)methyl)-5-(methoxymethyl)-2,7,13,14-tetramethyl-1,4,7,11,14-pentaazacyclooctadecane-3,6,10,15,18-pentaone]
- Max % inhibition: 95.96%
- IC50: 2.2 nM

Compound: COC[C@@H]1NC(=O)[C@H](CCC(=O)OC(C)(C)C)N(Cc2ccc(Cl)cc2Oc2ccc(-c3cnc(CN(C)C)n3C)cc2)C(=O)C[C@@H](Cc2ccccc2)C(=O)N(C)[C@H]2CCCC[C@@H]2NC(=O)C[C@H](Cc2ccc(Cl)cc2)N(C)C1=O [Compound 46, tert-butyl 3-((4S,7S,10S,14R,16aS,20aS)-14-benzyl-11-(4-chloro-2-(4-(2-((dimethylamino)methyl)-1-methyl-1H-imidazol-5-yl)phenoxy)benzyl)-4-(4-chlorobenzyl)-7-(methoxymethyl)-5,16-dimethyl-2,6,9,12,15-pentaoxodocosahydrobenzo[l][1,4,7,11,14]pentaazacyclooctadecin-10-yl]propanoate]
- Max % inhibition: 96.56%
- IC50: 2.7 nM

Compound: COC[C@@H]1NC(=O)[C@H](C)N(Cc2ccc(F)cc2Oc2ccc(-c3cnc(CN(C)C)n3C)cc2)C(=O)C[C@@H](Cc2ccccc2)C(=O)N(C)[C@H]2CCCC[C@@H]2NC(=O)C[C@H](Cc2ccc(Cl)cc2)N(C)C1=O [Compound 48, (4S,7S,10S,14R,16aS,20aS)-14-benzyl-4-(4-chlorobenzyl)-11-(2-(4-(2-((dimethylamino)methyl)-1-methyl-1H-imidazol-5-yl)phenoxy)-4-fluorobenzyl)-7-(methoxymethyl)-5,10,16-trimethylhexadecahydrobenzo[l][1,4,7,11,14]pentaazacyclooctadecine-2,6,9,12,15(3H)-pentaone]
- Max % inhibition: 87.82%
- IC50: 4.8 nM

Compound: [2H]C([2H])([2H])N(Cc1ncc(-c2ccc(Oc3cc(Cl)ccc3CN3C(=O)C[C@@H](Cc4ccccc4)C(=O)N(C)[C@@H](C)CNC(=O)C[C@H](Cc4ccc(Cl)cc4)N(C)C(=O)[C@H](COC)NC(=O)[C@@H]3CC)cc2)n1C)C([2H])([2H])[2H] [Compound 49, (2S,5S,8S,13S,16R)-16-benzyl-1-(2-(4-(2-((bis(methyl-d3)amino)methyl)-1-methyl-1H-imidazol-5-yl)phenoxy)-4-chlorobenzyl)-8-(4-chlorobenzyl)-2-ethyl-5-(methoxymethyl)-7,13,14-trimethyl-1,4,7,11,14-pentaazacyclooctadecane-3,6,10,15,18-pentaone]
- Max % inhibition: 99.12%
- IC50: 1.7 nM

Compound: COC[C@@H]1NC(=O)[C@H](C)N(Cc2ccc(Cl)cc2Oc2ccc(-c3cnc(CN(C)C)n3C)cc2)C(=O)C[C@@H](Cc2ccccc2)C(=O)N(C)C(C)C(C)NC(=O)C[C@H](Cc2ccc(Cl)cc2)N(C)C1=O (stereo partly drawn) [Compound 50, (2S,5S,8S,16R)-16-benzyl-1-(4-chloro-2-(4-(2-((dimethylamino)methyl)-1-methyl-1H-imidazol-5-yl)phenoxy)benzyl)-8-(4-chlorobenzyl)-5-(methoxymethyl)-2,7,12,13,14-pentamethyl-1,4,7,11,14-pentaazacyclooctadecane-3,6,10,15,18-pentaone]
- Max % inhibition: 101.21%
- IC50: 41 nM

Compound: COC[C@@H]1NC(=O)[C@H](C)N(Cc2ccc(Cl)cc2Oc2cc(F)c(-c3cnc(CN4CCCC4)n3C)c(F)c2)C(=O)C[C@@H](Cc2ccccc2)C(=O)N(C)[C@@H](C)CNC(=O)C[C@H](Cc2ccc(Cl)cc2)N(C)C1=O [Compound 51, (2S,5S,8S,13S,16R)-16-benzyl-1-(4-chloro-2-(3,5-difluoro-4-(1-methyl-2-(pyrrolidin-1-ylmethyl)-1H-imidazol-5-yl)phenoxy)benzyl)-8-(4-chlorobenzyl)-5-(methoxymethyl)-2,7,13,14-tetramethyl-1,4,7,11,14-pentaazacyclooctadecane-3,6,10,15,18-pentaone]
- Max % inhibition: 94.86%
- IC50: 0.5 nM

Compound: COC[C@@H]1NC(=O)[C@H](CCF)N(Cc2ccc(Cl)cc2Oc2ccc(-c3cnc(CN4CCCC4)n3C)cc2)C(=O)C[C@@H](Cc2ccccc2)C(=O)N(C)[C@@H](C)CNC(=O)C[C@H](Cc2ccc(Cl)cc2)N(C)C1=O [Compound 54, (2S,5S,8S,13S,16R)-16-benzyl-1-(4-chloro-2-(4-(1-methyl-2-(pyrrolidin-1-ylmethyl)-1H-imidazol-5-yl)phenoxy)benzyl)-8-(4-chlorobenzyl)-2-(2-fluoroethyl)-5-(methoxymethyl)-7,13,14-trimethyl-1,4,7,11,14-pentaazacyclooctadecane-3,6,10,15,18-pentaone]
- Max % inhibition: 92.54%
- IC50: 4.6 nM

Compound: COC[C@@H]1NC(=O)[C@H](C)N(Cc2ccc(Cl)cc2Oc2ccc(-c3c(C)nc(CN4CCCC4)n3C)cc2)C(=O)C[C@@H](Cc2ccccc2)C(=O)N(C)[C@@H](C)CNC(=O)C[C@H](Cc2ccc(Cl)cc2)N(C)C1=O [Compound 55, (2S,5S,8S,13S,16R)-16-benzyl-1-(4-chloro-2-(4-(1,4-dimethyl-2-(pyrrolidin-1-ylmethyl)-1H-imidazol-5-yl)phenoxy)benzyl)-8-(4-chlorobenzyl)-5-(methoxymethyl)-2,7,13,14-tetramethyl-1,4,7,11,14-pentaazacyclooctadecane-3,6,10,15,18-pentaone]
- Max % inhibition: 58.77%
- IC50: 9.3 nM

Compound: COC[C@@H]1NC(=O)[C@H](C)N(Cc2ccc(Cl)cc2Oc2ccc(-c3cnc(CN(C)C)n3C)cc2)C(=O)C[C@@H](Cc2cccc(C(F)F)c2)C(=O)N(C)[C@@H](C)CNC(=O)C[C@H](Cc2ccc(Cl)cc2)N(C)C1=O [Compound 56, (2S,5S,8S,13S,16R)-1-(4-chloro-2-(4-(2-((dimethylamino)methyl)-1-methyl-1H-imidazol-5-yl)phenoxy)benzyl)-8-(4-chlorobenzyl)-16-(3-(difluoromethyl)benzyl)-5-(methoxymethyl)-2,7,13,14-tetramethyl-1,4,7,11,14-pentaazacyclooctadecane-3,6,10,15,18-pentaone]
- Max % inhibition: 101.80%
- IC50: 2.6 nM

Compound: COC[C@@H]1NC(=O)[C@H](C)N(Cc2ccc(Cl)cc2Oc2ccc(-c3cnc(CN(C)C)n3C)cc2)C(=O)C[C@@H](Cc2ccc(C(F)F)cc2)C(=O)N(C)[C@@H](C)CNC(=O)C[C@H](Cc2ccc(Cl)cc2)N(C)C1=O [Compound 57, (2S,5S,8S,13S,16R)-1-(4-chloro-2-(4-(2-((dimethylamino)methyl)-1-methyl-1H-imidazol-5-yl)phenoxy)benzyl)-8-(4-chlorobenzyl)-16-(4-(difluoromethyl)benzyl)-5-(methoxymethyl)-2,7,13,14-tetramethyl-1,4,7,11,14-pentaazacyclooctadecane-3,6,10,15,18-pentaone]
- Max % inhibition: 95.83%
- IC50: 2.1 nM

Compound: COC[C@@H]1NC(=O)[C@H](C)N(Cc2ccc(Cl)cc2Oc2ccc(-c3cnc(CN4CC[C@@H](F)C4)n3C)cc2)C(=O)C[C@@H](Cc2ccccc2)C(=O)N(C)[C@@H](C)CNC(=O)C[C@H](Cc2ccc(Cl)cc2)N(C)C1=O [Compound 60, (2S,5S,8S,13S,16R)-16-benzyl-1-(4-chloro-2-(4-(2-(((R)-3-fluoropyrrolidin-1-yl)methyl)-1-methyl-1H-imidazol-5-yl)phenoxy)benzyl)-8-(4-chlorobenzyl)-5-(methoxymethyl)-2,7,13,14-tetramethyl-1,4,7,11,14-pentaazacyclooctadecane-3,6,10,15,18-pentaone]
- Max % inhibition: 82.23%
- IC50: 2.9 nM

Compound: COC[C@@H]1NC(=O)[C@H](C)N(Cc2ccc(Cl)cc2Oc2ccc(-c3cnc(CN(C)C)n3C)cc2)C(=O)C[C@@H](Cc2ccccc2)C(=O)N(C)C2CCOCC2NC(=O)CC(Cc2ccc(Cl)cc2)N(C)C1=O (stereo partly drawn) [Compound 61, (4S,7S,10S,14R)-14-benzyl-11-(4-chloro-2-(4-(2-((dimethylamino)methyl)-1-methyl-1H-imidazol-5-yl)phenoxy)benzyl)-4-(4-chlorobenzyl)-7-(methoxymethyl)-5,10,16-trimethyltetradecahydro-1H-pyrano[3,4-1][1,4,7,11,14]pentaazacyclooctadecine-2,6,9,12,15(3H)-pentaone]
- Max % inhibition: 99.31%
- IC50: 1.4 nM
